Test results: US20210116454A1, “METHODS FOR TREATING A HEMATOLOGICAL CANCER AND THE USE OF COMPANION BIOMARKERS FOR 2-(2,6-DIOXOPIPERIDIN-3-YL)-4-((2-FLUORO-4-((3-MORPHOLINOAZETIDIN-1-YL)METHYL)BENZYL)AMINO)ISOINDOLINE-1,3-DIONE” (CELGENE CORPORATION, priority 2019, published 2021)

Legend:
Format in all cases: cell-based
DB = assay: 5-day viable cell number and apoptosis (7-AAD exclusion/Annexin V flow cytometry); conditions: Homo sapiens; DB cells (Table 3)
Excerpt: (§1) The DLBCL panel includes seven cell lines classified as activated B-cell (ABC) subtype, thirteen cell lines classified as the germinal center B-cell (GCB) subtype, and three cell lines classified as primary mediastinal B-cell lymphoma (PMBL). […] The translocation of MYC, BCL6, or BCL2 to an IG locus usually leads to high levels of mRNA and protein due to the active transcription driven by a constitutively active IG promoter. […] Expressions of CRBN protein and known substrates, Ikaros, Aiolos, and ZFP91 were also evaluated (FIG. 1, panels B and C).
(§2) The panel of cell lines were treated with increasing doses of compounds for five days, at which time the number of viable cells was measured and the amount of apoptosis was determined by 7-AAD exclusion and Annexin V staining using flow cytometry.

Farage = assay: as above; conditions: Farage cells (Table 3); read-out: IC50
Excerpt: as §1, §2

HT = assay: as above; conditions: Homo sapiens; HT cells (Table 3); read-out: IC50
Excerpt: as §1, §2

KARPAS-1106P = assay: as above; conditions: Homo sapiens; KARPAS-1106P cells (Table 3); read-out: IC50
Excerpt: as §1, §2

KARPAS-422 = assay: as above; conditions: Homo sapiens; KARPAS-422 cells (Table 3); read-out: IC50
Excerpt: as §1, §2

OCI-LY-19 = assay: as above; conditions: Homo sapiens, OCI-LY19; OCI-LY-19 cells (Table 3); read-out: IC50
Excerpt: as §1, §2

OCI-Ly10 = assay: as above; conditions: Homo sapiens; OCI-Ly10 cells (Table 3); read-out: IC50
Excerpt: as §1, §2

Pfeiffer = assay: as above; conditions: Homo sapiens; Pfeiffer cells (Table 3)
Excerpt: as §1, §2

RIVA = assay: as above; conditions: RIVA cells (Table 3); read-out: IC50
Excerpt: as §1, §2

SU-DHL-10 = assay: as above; conditions: Homo sapiens, SU-DHL10; SU-DHL-10 cells (Table 3); read-out: IC50
Excerpt: as §1, §2

SU-DHL-4 = assay: as above; conditions: Homo sapiens; SU-DHL-4 cells (Table 3); read-out: IC50
Excerpt: as §1, §2

SU-DHL-8 = assay: as above; conditions: Homo sapiens; SU-DHL-8 cells (Table 3); read-out: IC50
Excerpt: as §1, §2

TMD8 = assay: as above; conditions: Homo sapiens; TMD8 cells (Table 3); read-out: IC50
Excerpt: as §1, §2

U2932 = assay: as above; conditions: Homo sapiens; U2932 cells (Table 3); read-out: IC50
Excerpt: as §1, §2

U2940 = assay: as above; conditions: Homo sapiens, U-2940; U2940 cells (Table 3); read-out: IC50
Excerpt: as §1, §2

DLBCL cell lines = assay: Panel of twenty three DLBCL cell lines, 5-day viable cells and apoptosis; conditions: panel of twenty three cell lines
Procedure: Compound 1 activity was evaluated in a panel of twenty three DLBCL cell lines. The DLBCL panel includes seven cell lines classified as activated B-cell (ABC) subtype, thirteen cell lines classified as the germinal center B-cell (GCB) subtype, and three cell lines classified as primary mediastinal B-cell lymphoma (PMBL). […] Thus, eleven cell lines have a t(8;14)(q24;q32) and/or t(14;18)(q32;q21.3), corresponding to MYC and BCL2 gene rearrangements into an immunoglobulin (IG) heavy chain locus as well as additional rearrangements affecting BCL6 (Table 1). The translocation of MYC, BCL6, or BCL2 to an IG locus usually leads to high levels of mRNA and protein due to the active transcription driven by a constitutively active IG promoter. Therefore, the protein levels of these genes were monitored by Western blots, confirming the overexpression of BCL2, MYC, and/or BCL6 in all the cell lines evaluated (FIG. 1, panel A). Expressions of CRBN protein and known substrates, Ikaros, Aiolos, and ZFP91 were also evaluated (FIG. 1, panels B and C).
as §2, with “cytometry. […] Overall, the sensitivity to Compound 1 was independent of cell of origin (COO), since ABC, GCB, and PMBL subtypes were sensitive to Compound 1 (Table 2).” for “cytometry.”

`COc1cccc2c1C(=O)c1c(O)c3c(c(O)c1C2=O)C[C@@](O)(C(=O)CO)C[C@@H]3O[C@H]1C[C@H](N)[C@H](O)[C@H](C)O1` [Doxorubicin, reference compound] was tested, and the IC50 (DB) was 3.8 µM, the IC50 (Farage) was 1.2 µM and the IC50 (HT) was 2 µM. The IC50 (KARPAS-1106P) was 1.7 µM, the IC50 (KARPAS-422) was 1 µM and the IC50 (OCI-LY-19) was 2 µM. For the same compound, the IC50 (OCI-Ly10) was 3 µM, the IC50 (Pfeiffer) was 3 µM and the IC50 (RIVA) was 5.5 µM. It also gave an IC50 (SU-DHL-10) of 0.6 µM, an IC50 (SU-DHL-4) of 1 µM and an IC50 (SU-DHL-8) of 0.6 µM. For the same compound, the IC50 (TMD8) was 0.7 µM, the IC50 (U2932) was 3 µM and the IC50 (U2940) was 2 µM. The “sensitivity of all DLBCL cell lines” value (DLBCL cell lines) was “strongly sensitive”.
